Source: patent US9833497B2, “Human originated EGF domain proteins and use of the same” (CHENGDU SOURCEBIO LIMITED-LIABILITY COMPANY, priority 2013, dated 2017)

Experiments:
Assay type in all cases: cell-based
E. coli DH5α = experiment: Antibacterial activity: MIC and growth curve against E. coli DH5α in 96-well plate; conditions: minimal inhibitory concentration against E. coli DH5α; 96-well plate, 5×10^5 CFU/mL, 37° C., judged after 8 h
Summary of the method: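 Log-phase DH5α (OD600 about 0.5, 37° C, 185 rpm in LB) was pelleted, resuspended in fresh LB and seeded at 5×10^5 CFU/mL with recombinant protein at 50, 25 and 12.5 μg/mL (two-fold series), in triplicate. Plates were shaken at 175 rpm, 37° C, and OD600 was read every 30 min. MIC was the lowest concentration with no growth.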

E. coli BL21 = experiment: MIC against Gram-negative bacteria: E. coli BL21
Summary of the method: (§1)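 Purified recombinant human EGF domain proteins are tested by broth dilution in LB against a 5×10^5 CFU/mL inoculum, with two-fold serial dilutions run in triplicate. Plates are incubated at 37° C with shaking, and the MIC is read as the lowest protein concentration without growth.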

Pseudomonas aeruginosa = experiment: MIC against Gram-negative bacteria: Pseudomonas aeruginosa
Summary of the method: as §1

Klebsiella pneumonia = experiment: MIC against Gram-negative bacteria: Klebsiella pneumonia
Summary of the method: as §1

Enterobacter cloacae = experiment: MIC against Gram-negative bacteria: Enterobacter cloacae
Summary of the method: as §1

Aeromonas hydrophila = experiment: MIC against Gram-negative bacteria: Aeromonas hydrophila
Summary of the method: as §1

Citrobacter diversus = experiment: MIC against Gram-negative bacteria: Citrobacter diversus
Summary of the method: as §1

Moraxella catarrhalis = experiment: MIC against Gram-negative bacteria: Moraxella catarrhalis
Summary of the method: as §1

Proteus mirabilis = experiment: MIC against Gram-negative bacteria: Proteus mirabilis
Summary of the method: as §1

Proteus vulgaris = experiment: MIC against Gram-negative bacteria: Proteus vulgaris
Summary of the method: as §1

Serratia marcescens = experiment: MIC against Gram-negative bacteria: Serratia marcescens
Summary of the method: as §1

[1] = 96-well plate, 5×10^5 CFU/mL, 37° C., 10 h
[2] = 10 h cultivation at 37° C., 5×10^5 CFU/mL, two-fold serial dilution
[3] = E. coli BL21, 96-well plate, 5×10^5 CFU/mL, 37° C., 10 h
[4] = Pseudomonas aeruginosa, 96-well plate, 5×10^5 CFU/mL, 37° C., 10 h
[5] = Klebsiella pneumonia, 96-well plate, 5×10^5 CFU/mL, 37° C., 10 h
[6] = Enterobacter cloacae, 96-well plate, 5×10^5 CFU/mL, 37° C., 10 h
[7] = Aeromonas hydrophila, 96-well plate, 5×10^5 CFU/mL, 37° C., 10 h
[8] = Citrobacter diversus, 96-well plate, 5×10^5 CFU/mL, 37° C., 10 h
[9] = Moraxella catarrhalis, 96-well plate, 5×10^5 CFU/mL, 37° C., 10 h
[10] = Proteus mirabilis, 96-well plate, 5×10^5 CFU/mL, 37° C., 10 h
[11] = Proteus vulgaris, 96-well plate, 5×10^5 CFU/mL, 37° C., 10 h
[12] = Serratia marcescens, 96-well plate, 5×10^5 CFU/mL, 37° C., 10 h

For “PRT549 (CDCSGNGDPNLLFSDCDPLTGACRGCLRHTTGPRCEICAPGFYGNALLPGNCTR; listed as Homo sapiens)”, the MIC (E. coli DH5α) was 12.5 µg/mL, the “MIC against E. coli BL21” value (E. coli BL21; [1]) was 50 µg/mL and the “MIC against P. aeruginosa” value (Pseudomonas aeruginosa; [1]) was 12.5 µg/mL. For the same substance, the “MIC against K. pneumonia” value (Klebsiella pneumonia; [1]) was 50 µg/mL, the “MIC against E. cloacae” value (Enterobacter cloacae; [1]) was 12.5 µg/mL and the “MIC against A. hydrophila” value (Aeromonas hydrophila; [1]) was 50 µg/mL. The “MIC against C. diversus” value (Citrobacter diversus; [1]) was 12.5 µg/mL, the “MIC against M. catarrhalis” value (Moraxella catarrhalis; [1]) was 25 µg/mL and the “MIC against P. mirabilis” value (Proteus mirabilis; [1]) was 12.5 µg/mL. For the same substance, the “MIC against P. vulgaris” value (Proteus vulgaris; [1]) was 25 µg/mL and the “MIC against S. marcescens” value (Serratia marcescens; [1]) was 12.5 µg/mL.

With “PRT1149 (APSVCQQDVCHNGGTCHAIFLSSGIVSFQCDCPLHFTGRFCE; listed as Homo sapiens)” the MIC (E. coli DH5α) was 25 µg/mL, the “MIC E. coli BL21” value (E. coli BL21; [2]) was 25 µg/mL and the “MIC P. aeruginosa” value (Pseudomonas aeruginosa; [2]) was 50 µg/mL. The “MIC K. pneumonia” value (Klebsiella pneumonia; [2]) was 25 µg/mL, the “MIC E. cloacae” value (Enterobacter cloacae; [2]) was 12.5 µg/mL and the “MIC A. hydrophila” value (Aeromonas hydrophila; [2]) was 50 µg/mL. For the same substance, the “MIC C. diversus” value (Citrobacter diversus; [2]) was 12.5 µg/mL, the “MIC M. catarrhalis” value (Moraxella catarrhalis; [2]) was 50 µg/mL and the “MIC P. mirabilis” value (Proteus mirabilis; [2]) was 12.5 µg/mL. The “MIC P. vulgaris” value (Proteus vulgaris; [2]) was 25 µg/mL and the “MIC S. marcescens” value (Serratia marcescens; [2]) was 50 µg/mL.

With “PRT73 (TNGQCQCKENYYKLLAQDTCLPCDCFPHGSHSRTCD; listed as Homo sapiens)” the MIC (E. coli DH5α) was 25 µg/mL, the “MIC (μg/mL) E. coli BL21” value (E. coli BL21; [3]) was 50 µg/mL and the “MIC (μg/mL) P. aeruginosa” value (Pseudomonas aeruginosa; [4]) was 25 µg/mL. The “MIC (μg/mL) K. pneumonia” value (Klebsiella pneumonia; [5]) was 100 µg/mL, the “MIC (μg/mL) E. cloacae” value (Enterobacter cloacae; [6]) was 25 µg/mL and the “MIC (μg/mL) A. hydrophila” value (Aeromonas hydrophila; [7]) was 50 µg/mL. The “MIC (μg/mL) C. diversus” value (Citrobacter diversus; [8]) was 12.5 µg/mL, the “MIC (μg/mL) M. catarrhalis” value (Moraxella catarrhalis; [9]) was 50 µg/mL and the “MIC (μg/mL) P. mirabilis” value (Proteus mirabilis; [10]) was 12.5 µg/mL. The “MIC (μg/mL) P. vulgaris” value (Proteus vulgaris; [11]) was 50 µg/mL and the “MIC (μg/mL) S. marcescens” value (Serratia marcescens; [12]) was 12.5 µg/mL.

Work on “PRT896 (EVNECNSNPCVHGACRDSLNGYKCDCDPGWSGTNCD; listed as Homo sapiens)” yielded an MIC (E. coli DH5α) of 25 µg/mL, an MIC (E. coli BL21; E. coli BL21, 10 h cultivation at 37° C.) of 50 µg/mL and an MIC (Pseudomonas aeruginosa; P. aeruginosa, 10 h cultivation at 37° C.) of 25 µg/mL. For the same substance, the MIC (Klebsiella pneumonia; K. pneumonia, 10 h cultivation at 37° C.) was 12.5 µg/mL, the MIC (Enterobacter cloacae; E. cloacae, 10 h cultivation at 37° C.) was 50 µg/mL and the MIC (Aeromonas hydrophila; A. hydrophila, 10 h cultivation at 37° C.) was 12.5 µg/mL. The MIC (Citrobacter diversus; C. diversus, 10 h cultivation at 37° C.) was 50 µg/mL, the MIC (Moraxella catarrhalis; M. catarrhalis, 10 h cultivation at 37° C.) was 12.5 µg/mL and the MIC (Proteus mirabilis; P. mirabilis, 10 h cultivation at 37° C.) was 25 µg/mL. The MIC (Proteus vulgaris; P. vulgaris, 10 h cultivation at 37° C.) was 50 µg/mL and the MIC (Serratia marcescens; S. marcescens, 10 h cultivation at 37° C.) was 12.5 µg/mL.

“PRT1306 (CSLLCLPKANNSRSCRCPEDVSSSVLPSGDLMCDCPQGYQLKNNTCV; listed as Homo sapiens)” was tested, and the MIC (E. coli DH5α) was 25 µg/mL, the “MIC against E. coli BL21” value (E. coli BL21; [3]) was 50 µg/mL and the “MIC against P. aeruginosa” value (Pseudomonas aeruginosa; [4]) was 12.5 µg/mL. For the same substance, the “MIC against K. pneumonia” value (Klebsiella pneumonia; [5]) was 50 µg/mL, the “MIC against E. cloacae” value (Enterobacter cloacae; [6]) was 12.5 µg/mL and the “MIC against A. hydrophila” value (Aeromonas hydrophila; [7]) was 25 µg/mL. The “MIC against C. diversus” value (Citrobacter diversus; [8]) was 50 µg/mL, the “MIC against M. catarrhalis” value (Moraxella catarrhalis; [9]) was 25 µg/mL and the “MIC against P. mirabilis” value (Proteus mirabilis; [10]) was 12.5 µg/mL. For the same substance, the “MIC against P. vulgaris” value (Proteus vulgaris; [11]) was 25 µg/mL and the “MIC against S. marcescens” value (Serratia marcescens; [12]) was 50 µg/mL.
